Source: patent publication US4426390A, “Novel β-lactam compounds, process for producing thereof, and use thereof as medicines” (Sanraku-Ocean Co., Ltd., priority 1980, dated 1984)
Converted amounts (≈) assume the structure as drawn. Like-named read-outs stand apart in the source and are kept apart here.

How the values were obtained:
[1] = test system: Providencia sp. P8; test: MIC by agar dilution method; assay type: cell-based; settings: Providencia sp. P8; agar dilution, 37° C., 18 hours; read-out: MIC
Description: (§1) The MIC is measured by an agar dilution method based on the standard method of the Japanese Society of Chemotherapy (Japanese Society of Chemotherapy: The Revised Method of Determination of MIC Values, Chemotherapy 22, 1126-1128, […]). Specifically, the antibiotic is serially diluted with a 1/50 M phosphate buffer at a pH of 7.3 to prepare a twofold dilution series. One milliliter of each dilution and 9 ml of an agar medium (Heart Infusion Agar; a product of Difco Laboratories) are mixed and allowed to solidify in a Petri dish having a diameter of 9 cm. One loopful of the stock culture of the test microbe is inoculated in trypto-soy buillon (a product of Eiken Kagaku Co., Ltd.) and incubated at 37° C. for 18 hours. The resulting culture broth is diluted to a concentration of about 10^6 cells/ml with physiological saline and inoculated on the agar plate by means of a microplanter.

[2] = test system: Staphylococcus aureus 209P; test: MIC by agar dilution method; assay type: cell-based; settings: 37° C., 18 hours
Description: as §1

[3] = test system: P. vulgaris GN76; test: MIC by agar dilution method; assay type: cell-based; settings: Proteus vulgaris, 37° C., 18 hours
Description: as §1

[4] = test system: P. rettgeri P7; test: MIC by agar dilution method; assay type: cell-based; settings: Providencia rettgeri; P. rettgeri P7; agar dilution, 37° C., 18 hours; read-out: MIC
Description: as §1

[5] = test system: Bacillus subtillis ATCC 6633; test: MIC by agar dilution method; assay type: cell-based
Description: as §1

[6] = test system: Proteus mirabilis P6; test: MIC by agar dilution method; assay type: cell-based; settings: Proteus mirabilis P6; agar dilution, 37° C., 18 hours; read-out: MIC
Description: as §1

[7] = test system: Escherichia coli K-12; test: MIC by agar dilution method; assay type: cell-based; settings: K12; Escherichia coli K-12; agar dilution, 37° C., 18 hours; read-out: MIC
Description: as §1

[8] = test system: S. aureus Russell; test: MIC by agar dilution method; assay type: cell-based; settings: Staphylococcus aureus; S. aureus Russell; agar dilution, 37° C., 18 hours; read-out: MIC
Description: as §1

[9] = test system: Citrobacter Freundii GN346; test: MIC by agar dilution method; assay type: cell-based; settings: 37° C., 18 hours
Description: as §1

[10] = test system: Ps. aeruginosa NCTC10490; test: MIC by agar dilution method; assay type: cell-based; settings: Pseudomonas aeruginosa, 37° C., 18 hours
Description: as §1

[11] = test system: Comamonas terrigena B996; test: MIC by agar dilution method; assay type: cell-based; settings: 37° C., 18 hours
Description: as §1

[12] = test system: P. sp. P22; test: MIC by agar dilution method; assay type: cell-based; settings: 37° C., 18 hours
Description: as §1

[13] = test system: Pseudomonas aenginosa IFO3445; test: MIC by agar dilution method; assay type: cell-based; settings: 37° C., 18 hours
Description: as §1

[14] = test system: Alcaligenes Faecolis A1; test: MIC by agar dilution method; assay type: cell-based; settings: Alcaligenes Faecolis A1; agar dilution, 37° C., 18 hours; read-out: MIC
Description: as §1

[15] = test system: Ent. cloacae 45; test: MIC by agar dilution method; assay type: cell-based; settings: Enterobacter cloacae, 37° C., 18 hours
Description: as §1

[16] = test system: Serratia marcesceus S18; test: MIC by agar dilution method; assay type: cell-based; settings: 37° C., 18 hours
Description: as §1

[17] = test system: S. aureus Smith; test: MIC by agar dilution method; assay type: cell-based; settings: Staphylococcus aureus, 37° C., 18 hours
Description: as §1

[18] = test system: Ent. sp. E8; test: MIC by agar dilution method; assay type: cell-based; settings: Ent. sp. E8; agar dilution, 37° C., 18 hours; read-out: MIC
Description: as §1

[19] = test system: E. coli RGN823; test: MIC by agar dilution method; assay type: cell-based; settings: Escherichia coli, 37° C., 18 hours
Description: as §1

[20] = test system: S. epidermidis; test: MIC by agar dilution method; assay type: cell-based; settings: Staphylococcus epidermidis, 37° C., 18 hours
Description: as §1

[21] = test system: Klebsiella pneumoniae K13; test: MIC by agar dilution method; assay type: cell-based; settings: 37° C., 18 hours
Description: as §1

[22] = test system: Ser. marcesceus T55; test: MIC by agar dilution method; assay type: cell-based; settings: 37° C., 18 hours
Description: as §1

[23] = test system: Sarcina lutea S19; test: MIC by agar dilution method; assay type: cell-based; settings: Micrococcus luteus, 37° C., 18 hours
Description: as §1

[24] = test system: Enterobacter aerogenes E19; test: MIC by agar dilution method; assay type: cell-based; settings: Klebsiella aerogenes, 37° C., 18 hours
Description: as §1

[25] = test system: Citrobacter Freundii GN346; test: Synergistic effect on MIC, microdilution transfer plate technique; assay type: cell-based
[26] = Stability (half life) in phosphate buffers of various pH; assay type: physicochemical; settings: 28° C.
Description: By adding 2% sodium hydroxide or 10% hydrochloric acid, the pH of 0.05 M phosphate buffer is adjusted to 4, 5, 6, 7, 8 and 9, respectively, and distributed into test tubes in an amount of 3 ml. Concentrated solution of antibiotic OA-6129A (0.05 ml) is added to each test tube and allowed to stand in a thermostatic chamber of 28° C. The time course curve of the concentration decrease of antibiotic OA-6129A is drawn by spectrophotometric measurement at 300 nm, from which the half life of the antibiotic at the indicated pH is calculated. As a control, antibiotic PS-5, a carbapenem compound described in the above-cited reference is simultaneously tested.

[27] = test system: ddY mice; settings: mouse, in vivo, ip, 500 mg/kg
[28] = Physicochemical properties; settings: pale yellow powder
[29] = test system: Proteus vulgaris GN76; test: Synergistic effect on MIC, microdilution transfer plate technique; assay type: cell-based
[30] = OA-6129A 25 combined with CER <5

CC(O)[C@@H]1C(=O)N2C(C(=O)O)=C(SCCNC(=O)CCNC(=O)C(O)C(C)(C)CO)C[C@H]12 (relative stereo) [OA-6129B1]
MIC [1]: 0.2 µg/mL (≈ 0.422 µM) | MIC [2]: 0.1 µg/mL (≈ 0.211 µM) | MIC [3]: 50 µg/mL (≈ 106 µM) | MIC [4]: 0.78 µg/mL (≈ 1.65 µM) | MIC ([5]; ATCC6633, Bacillus subtillis ATCC 6633, agar dilution, 37° C., 18 hours, read-out: MIC): 0.05 µg/mL (≈ 0.106 µM) | MIC [6]: 0.78 µg/mL (≈ 1.65 µM) | MIC [7]: 0.39 µg/mL (≈ 0.824 µM) | MIC [8]: 0.78 µg/mL (≈ 1.65 µM) | MIC [9]: 6.25 µg/mL (≈ 13.2 µM) | MIC [10]: > 50 µg/mL | MIC [11]: 0.012 µg/mL (≈ 0.0253 µM) | MIC [12]: > 50 µg/mL | MIC [13]: > 50 µg/mL | MIC [14]: 0.2 µg/mL (≈ 0.422 µM) | MIC [15]: 6.25 µg/mL (≈ 13.2 µM) | MIC [16]: 6.25 µg/mL (≈ 13.2 µM) | MIC [17]: 1.56 µg/mL (≈ 3.29 µM) | MIC [18]: 0.39 µg/mL (≈ 0.824 µM) | MIC [19]: 0.39 µg/mL (≈ 0.824 µM) | MIC [20]: 0.78 µg/mL (≈ 1.65 µM) | MIC [21]: > 50 µg/mL | MIC [22]: 12.5 µg/mL (≈ 26.4 µM) | MIC [23]: 0.1 µg/mL (≈ 0.211 µM) | MIC [24]: 3.13 µg/mL (≈ 6.61 µM)

CC[C@H]1C(=O)N2C(C(=O)O)=C(SCCNC(=O)CCNC(=O)C(O)C(C)(C)CO)C[C@H]12 (relative stereo) [OA-6129A]
MIC ([25]; Citrobacter freundii, GN346, alone, heart infusion broth, 10^5 cells/ml): 50 µg/mL | FIC index ([25]; OA-6129A 1.56 combined with ABPC […]): 1.03 | FIC index ([25]; OA-6129A 1.56 combined with CER 1250): 1.03 | FIC index ([25]; OA-6129A 3.13 combined with ABPC 625): 0.63 | FIC index ([25]; OA-6129A 3.13 combined with CER 625): 0.63 | FIC index ([25]; OA-6129A 6.25 combined with ABPC […]): 0.38 | FIC index ([25]; OA-6129A 6.25 combined with CER 313): 0.38 | FIC index ([25]; OA-6129A 12.5 combined with ABPC […]): 0.50 | FIC index ([25]; OA-6129A 12.5 combined with CER 313): 0.50 | FIC index ([25]; OA-6129A 25 combined with ABPC <5): 0.50 | FIC index [25, 30]: 0.50 | half-life ([26]; pH 4, 0.05 M phosphate buffer): 1.05 h | half-life ([26]; pH 5, 0.05 M phosphate buffer): 4.07 h | half-life ([26]; pH 6, 0.05 M phosphate buffer): 21.2 h | half-life ([26]; pH 7, 0.05 M phosphate buffer): 57.7 h | half-life ([26]; pH 8, 0.05 M phosphate buffer): 128 h | half-life ([26]; pH 9, 0.05 M phosphate buffer): 132 h | acute toxicity [27]: no acute toxicity is observed | hygroscopicity [28]: hygroscopic | MIC [1]: 12.5 µg/mL (≈ 27.3 µM) | MIC [2]: 0.78 µg/mL (≈ 1.7 µM) | MIC [3]: 100 µg/mL (≈ 219 µM) | MIC [4]: 25 µg/mL (≈ 54.6 µM) | MIC ([5]; Bacillus, ATCC6633, 18 h): 0.39 µg/mL (≈ 0.852 µM) | MIC [6]: 50 µg/mL (≈ 109 µM) | MIC [7]: 12.5 µg/mL (≈ 27.3 µM) | MIC [8]: 0.78 µg/mL (≈ 1.7 µM) | MIC [9]: 50 µg/mL (≈ 109 µM) | MIC [10]: > 100 µg/mL | MIC [11]: 0.05 µg/mL (≈ 0.109 µM) | MIC [13]: > 100 µg/mL | MIC [14]: 1.56 µg/mL (≈ 3.41 µM) | MIC [15]: 50 µg/mL (≈ 109 µM) | MIC [16]: 100 µg/mL (≈ 219 µM) | MIC [17]: 1.56 µg/mL (≈ 3.41 µM) | MIC [18]: 12.5 µg/mL (≈ 27.3 µM) | MIC [19]: 12.5 µg/mL (≈ 27.3 µM) | MIC [20]: 1.56 µg/mL (≈ 3.41 µM) | MIC [21]: 50 µg/mL (≈ 109 µM) | MIC [22]: 100 µg/mL (≈ 219 µM) | MIC [23]: 0.78 µg/mL (≈ 1.7 µM) | MIC [24]: 25 µg/mL (≈ 54.6 µM) | FIC index ([29]; OA-6129A 1.56 combined with ABPC (printed 3.3)): 0.28 | FIC index ([29]; OA-6129A 1.56 combined with CER 313): 0.28 | FIC index ([29]; OA-6129A 3.13 combined with ABPC 156): 0.19 | FIC index ([29]; OA-6129A 3.13 combined with CER 156): 0.19 | FIC index ([29]; OA-6129A 6.25 combined with ABPC 39): 0.16 | FIC index ([29]; OA-6129A 6.25 combined with CER 39): 0.16 | FIC index ([29]; OA-6129A 12.5 combined with ABPC 10): 0.26 | FIC index ([29]; OA-6129A 12.5 combined with CER 20): 0.27 | FIC index ([29]; OA-6129A 25 combined with ABPC 10): 0.51 | FIC index [29, 30]: 0.50 | MIC ([29]; Proteus vulgaris, GN76, alone, heart infusion broth, 10^5 cells/ml): 50 µg/mL
